Measured values taken from PMC10786919, “Design-rules for stapled peptides with in vivo activity and their application to Mdm2/X antagonists” (Nature Communications, 2024).
Like-named read-outs stand apart in the source and are kept apart here. Positions of bridges follow the written chain, without caps; N, C: chain ends. Non-standard residues stand in square brackets, D forms with d. Residues, ends and D or L forms follow the SMILES beside them. Lys(N3) = [N-]=[N+]=NCCCC[C@H](N)C(=O)O; 2Nal = N[C@@H](Cc1ccc2ccccc2c1)C(=O)O; Lys(Me2) = CN(C)CCCC[C@H](N)C(=O)O; R8 = C=CCCCCCC[C@@](C)(N)C(=O)O; Cit = NC(=O)NCCC[C@H](N)C(=O)O; Cba = N[C@@H](CC1CCC1)C(=O)O; S5 = C=CCCC[C@](C)(N)C(=O)O; Nle = CCCC[C@H](N)C(=O)O; Dab = NCC[C@H](N)C(=O)O; Aib = CC(C)(N)C(=O)O; Ahx = NCCCCCC(=O)O; βAla = NCCC(=O)O

Experiments:
[1] = Lactate dehydrogenase (LDH) release assay; type: cell-based
Experimental: (§1) HCT116 cells were stably transfected with a p53 responsive β-lactamase reporter and expanded in McCoy’s 5 A Medium with 10% fetal bovine serum (FBS), Blasticidin, and Penicillin/Streptomycin and then transferred to 1.5 ml freezing vials and stored under liquid nitrogen in growth media containing 5% DMSO. […] The cells were then seeded into a 384-well plate at a density of 8000 cells per well. […] The final working concentration of DMSO was 0.5%. Lactate dehydrogenase release was detected using the CytoTox-ONE Homogenous Membrane Integrity Assay Kit (Promega), as per the manufacturer’s instructions. Measurements were carried out using the Tecan plate reader. […] Measurements were taken a minimum of three times (biological replicates) and values are reported as geometric means of the replicates.

HCT116 cells = experiment: Lactate dehydrogenase (LDH) release assay; type: cell-based
Experimental: as §1

| SMILES | EC50 ([1]; LDH: Cytotoxicity assay EC50) [µM] | LDH: Cytotoxicity assay % Effect (HCT116 cells) [%] | further results |
| --- | --- | --- | --- |
| CC(=O)N[C@H](C(=O)N[C@@H](CCCNC(N)=O)C(=O)N[C@@H](CCCCN)C(=O)NCCCCCC(=O)N[C@H](C(=O)N[C@@H](CO)C(=O)N[C@@H](Cc1ccccc1)C(=O)N[C@]1(C)CCCCCCC=CCCC[C@@](C)(C(=O)N[C@@H](CCC(=O)O)C(=O)N[C@@H](CC(N)=O)C(=O)N[C@@H](Cc2ccccc2)C(N)=O)NC(=O)[C@H](CC(C)C)NC(=O)[C@H](CC(C)C)NC(=O)[C@H](C)NC(=O)[C@H](Cc2c[nH]c3ccccc23)NC(=O)[C@H](Cc2ccc(O)cc2)NC(=O)[C@H](CCC(=O)O)NC1=O)[C@@H](C)O)C(C)C [MP-668] (Ac-V[Cit]K[Ahx]TSF[R8]EYWALL[S5]ENF-NH2; staple 8-15) | > 50 | 4.429 | – |
| CC(=O)N[C@@H](CCN)C(=O)N[C@@H](CCN)C(=O)NCCCCCC(=O)N[C@H](C(=O)N[C@@H](CO)C(=O)N[C@@H](Cc1ccccc1)C(=O)N[C@]1(C)CCCCCCC=CCCC[C@@](C)(C(=O)N[C@@H](CCC(=O)O)C(=O)N[C@@H](CC(N)=O)C(=O)N[C@@H](Cc2ccccc2)C(N)=O)NC(=O)[C@H](CC(C)C)NC(=O)[C@H](CC(C)C)NC(=O)[C@H](C)NC(=O)[C@H](Cc2c[nH]c3ccccc23)NC(=O)[C@H](Cc2ccc(O)cc2)NC(=O)[C@H](CCC(=O)O)NC1=O)[C@@H](C)O [MP-664] (Ac-[Dab][Dab][Ahx]TSF[R8]EYWALL[S5]ENF-NH2; staple 7-14) | > 50 | 4.71 | – |
| CCCC[C@@H]1NC(=O)[C@H](CC(C)C)NC(=O)[C@H](C)NC(=O)[C@H](Cc2c[nH]c3ccccc23)NC(=O)[C@H](Cc2ccc(O)cc2)NC(=O)[C@H](CCC(=O)O)NC(=O)[C@](C)(NC(=O)[C@H](Cc2ccccc2)NC(=O)[C@H](CO)NC(=O)[C@@H](NC(C)=O)[C@@H](C)O)CCCCCCC=CCCC[C@@](C)(C(N)=O)NC1=O [MP-151] | > 50 | 9.894 | – |
| CC(=O)N[C@@H](CN)C(=O)NCCCCCC(=O)N[C@H](C(=O)N[C@@H](CO)C(=O)N[C@@H](Cc1ccccc1)C(=O)N[C@]1(C)CCCCCCC=CCCC[C@@](C)(C(=O)N[C@@H](CCC(=O)O)C(=O)N[C@@H](CC(N)=O)C(=O)N[C@@H](Cc2ccccc2)C(N)=O)NC(=O)[C@H](CC(C)C)NC(=O)[C@H](CC(C)C)NC(=O)[C@H](C)NC(=O)[C@H](Cc2c[nH]c3ccccc23)NC(=O)[C@H](Cc2ccc(O)cc2)NC(=O)[C@H](CCC(=O)O)NC1=O)[C@@H](C)O [MP-665] | > 50 | 4.993 | – |
| CC(=O)N[C@@H](CCCCN=[N+]=[N-])C(=O)NCCC(=O)N[C@@H](CC(C)C)C(=O)N[C@H](C(=O)N[C@@H](Cc1ccccc1)C(=O)N[C@]1(C)CCCCCCC=CCCC[C@@](C)(C(=O)N[C@@H](C)C(=O)NC(C)(C)C(=O)NC(C)(C)C(=O)NC(C)(C)C(=O)NC(C)(C)C(=O)NC(C)(C)C(N)=O)NC(=O)[C@H](CC2CCC2)NC(=O)[C@H](CCC(N)=O)NC(=O)[C@H](C)NC(=O)[C@H](Cc2c[nH]c3ccccc23)NC(=O)[C@H](Cc2ccc(O)cc2)NC(=O)[C@H](CCC(=O)O)NC1=O)[C@@H](C)O [MP-413] (Ac-[Lys(N3)][βAla]LTF[R8]EYWAQ[Cba][S5]A[Aib][Aib][Aib][Aib][Aib]-NH2; staple 6-13) | – | – | EC50 ([1]; 0% FBS 4Hr, read-out: LDH: Cytotoxicity assay EC50): > 50.7 µM; EC50 ([1]; 10% FBS 16Hr, read-out: LDH: Cytotoxicity assay EC50): > 50.7 µM; LDH: Cytotoxicity assay % Effect (HCT116 cells; 0% FBS 4Hr): 8.4%; LDH: Cytotoxicity assay % Effect (HCT116 cells; 10% FBS 16Hr): 10.36% |
| CC(=O)N[C@@H](CCCCN)C(=O)N[C@@H](CCCCN)C(=O)N[C@H](C(=O)N[C@@H](CO)C(=O)N[C@@H](Cc1ccc2ccccc2c1)C(=O)N[C@]1(C)CCCCCCC=CCCC[C@@](C)(C(=O)N[C@@H](CCC(=O)O)C(N)=O)NC(=O)[C@H](CC2CCC2)NC(=O)[C@H](CC(C)C)NC(=O)[C@H](C)NC(=O)[C@H](Cc2c[nH]c3ccccc23)NC(=O)[C@H](Cc2ccc(O)cc2)NC(=O)[C@H](CCC(=O)O)NC1=O)[C@@H](C)O [MP-158] (Ac-KKTS[2Nal][R8]EYWAL[Cba][S5]E-NH2; staple 6-13) | > 50 | 9.197 | – |
| CC(=O)N[C@@H](CCCCN=[N+]=[N-])C(=O)NCCC(=O)N[C@@H](CC(C)C)C(=O)N[C@H](C(=O)N[C@@H](Cc1ccccc1)C(=O)N[C@]1(C)CCCCCCC=CCCC[C@@](C)(C(=O)N[C@@H](CO)C(=O)N[C@@H](C)C(=O)N[C@@H](C)C(N)=O)NC(=O)[C@H](CC2CCC2)NC(=O)[C@H](CCC(N)=O)NC(=O)[C@H](C)NC(=O)[C@H](Cc2c[nH]c3cc(Cl)ccc23)NC(=O)[C@H](Cc2ccc(CP(=O)(O)O)cc2)NC(=O)[C@H](CCC(=O)O)NC1=O)[C@@H](C)O [MP-891] | – | – | EC50 ([1]; 0% FBS 4Hr, read-out: LDH: Cytotoxicity assay: EC50): > 50.6 µM; LDH: Cytotoxicity assay: % Effect (HCT116 cells; 0% FBS 4Hr): 3.299% |
| CC(=O)N[C@@H](CCCCN(C)C)C(=O)N[C@@H](CCCCN(C)C)C(=O)NCCCCCC(=O)N[C@H](C(=O)N[C@@H](CO)C(=O)N[C@@H](Cc1ccccc1)C(=O)N[C@]1(C)CCCCCCC=CCCC[C@@](C)(C(=O)N[C@@H](CCC(=O)O)C(=O)N[C@@H](CC(N)=O)C(=O)N[C@@H](Cc2ccccc2)C(N)=O)NC(=O)[C@H](CC(C)C)NC(=O)[C@H](CC(C)C)NC(=O)[C@H](C)NC(=O)[C@H](Cc2c[nH]c3ccccc23)NC(=O)[C@H](Cc2ccc(O)cc2)NC(=O)[C@H](CCC(=O)O)NC1=O)[C@@H](C)O [MP-2042] (Ac-[Lys(Me2)][Lys(Me2)][Ahx]TSF[R8]EYWALL[S5]ENF-NH2; staple 7-14) | > 50 | 5.569 | – |
| CC(=O)N[C@H](C(=O)N[C@@H](CO)C(=O)N[C@@H](Cc1ccccc1)C(=O)NC(C)(C)C(=O)N[C@@H](CCC(=O)O)C(=O)N[C@@H](Cc1ccc(O)cc1)C(=O)N[C@@H](Cc1c[nH]c2ccccc12)C(=O)N[C@@H](C)C(=O)N[C@@H](CC(C)C)C(=O)N[C@@H](CC1CCC1)C(=O)NC(C)(C)C(N)=O)[C@@H](C)O [MP-1154] (Ac-TSF[Aib]EYWAL[Cba][Aib]-NH2) | > 50 | 17.78 | – |
| CC(=O)N[C@H](C(=O)N[C@@H](CCCNC(N)=O)C(=O)N[C@H](C(=O)N[C@@H](CO)C(=O)N[C@@H](Cc1ccccc1)C(=O)N[C@]1(C)CCCCCCC=CCCC[C@@](C)(C(N)=O)NC(=O)[C@H](CC(C)C)NC(=O)[C@H](CC(C)C)NC(=O)[C@H](C)NC(=O)[C@H](Cc2c[nH]c3ccccc23)NC(=O)[C@H](Cc2ccc(O)cc2)NC(=O)[C@H](CCC(=O)O)NC1=O)[C@@H](C)O)C(C)C [MP-9667] | > 50 | 5.511 | – |
| CCCC[C@H](NC(=O)[C@H](CC(C)C)NC(=O)[C@H](C)NC(=O)[C@H](Cc1c[nH]c2ccccc12)NC(=O)[C@H](Cc1ccc(O)cc1)NC(=O)[C@H](CCC(=O)O)NC(=O)C(C)(C)NC(=O)[C@H](Cc1ccccc1)NC(=O)[C@H](CO)NC(=O)[C@@H](NC(C)=O)[C@@H](C)O)C(=O)NC(C)(C)C(N)=O [MP-156] | > 50 | -1.482 | – |
| CC(=O)N[C@@H](CCCCN)C(=O)N[C@@H](CCCCN)C(=O)N[C@H](C(=O)N[C@@H](CO)C(=O)N[C@@H](Cc1ccccc1)C(=O)N[C@]1(C)CCCCCCC=CCCC[C@@](C)(C(=O)N[C@@H](CCC(=O)O)C(N)=O)NC(=O)[C@H](CC2CCC2)NC(=O)[C@H](CC(C)C)NC(=O)[C@H](C)NC(=O)[C@H](Cc2c[nH]c3ccccc23)NC(=O)[C@H](Cc2ccc(O)cc2)NC(=O)[C@H](CCC(=O)O)NC1=O)[C@@H](C)O [MP-157] (Ac-KKTSF[R8]EYWAL[Cba][S5]E-NH2; staple 6-13) | > 50 | 5.957 | – |
| CC(=O)N[C@H](C(=O)N[C@@H](CO)C(=O)N[C@@H](Cc1ccccc1)C(=O)N[C@]1(C)CCCCCCC=CCCC[C@@](C)(C(=O)N[C@@H](CCC(=O)O)C(N)=O)NC(=O)[C@H](CC2CCC2)NC(=O)[C@H](CC(C)C)NC(=O)[C@H](C)NC(=O)[C@H](Cc2c[nH]c3ccccc23)NC(=O)[C@H](Cc2ccc(O)cc2)NC(=O)[C@H](CCC(=O)O)NC1=O)[C@@H](C)O [MP-140] (Ac-TSF[R8]EYWAL[Cba][S5]E-NH2; staple 4-11) | > 50 | 11.41 | – |
| CCCC[C@@H]1NC(=O)[C@H](CC(C)C)NC(=O)[C@H](C)NC(=O)[C@H](Cc2c[nH]c3ccccc23)NC(=O)[C@H](Cc2ccc(O)cc2)NC(=O)[C@H](CCC(=O)O)NC(=O)[C@](C)(NC(=O)[C@H](Cc2ccc3ccccc3c2)NC(=O)[C@H](CO)NC(=O)[C@@H](NC(C)=O)[C@@H](C)O)CCCCCCC=CCCC[C@@](C)(C(N)=O)NC1=O [MP-147] (Ac-TS[2Nal][R8]EYWAL[Nle][S5]-NH2; staple 4-11) | > 50 | 20.59 | – |
| CC(=O)N[C@@H](CCCNC(=N)N)C(=O)NCCCCCC(=O)N[C@@H](CCCCN=[N+]=[N-])C(=O)N[C@@H](CC(C)C)C(=O)N[C@H](C(=O)N[C@@H](Cc1ccccc1)C(=O)N[C@]1(C)CCCCCCC=CCCC[C@@](C)(C(=O)N[C@@H](CO)C(=O)N[C@@H](C)C(=O)N[C@@H](C)C(N)=O)NC(=O)[C@H](CC2CCC2)NC(=O)[C@H](CCC(N)=O)NC(=O)[C@H](C)NC(=O)[C@H](Cc2c[nH]c3ccccc23)NC(=O)[C@H](Cc2ccc(O)cc2)NC(=O)[C@H](CCC(=O)O)NC1=O)[C@@H](C)O [MP-005] | – | – | EC50 ([1]; LDH: Cytotoxicity assay: EC50): > 50 µM; LDH: Cytotoxicity assay: % Effect (HCT116 cells): 39.54% |
